Experimental data published in patent US9238039B2, “Pyrazolo[1,5-A]pyrimidines for antiviral treatment” (Gilead Sciences, Inc., priority 2010, dated 2016).

Tested on: RSV strain A2
Experiment: RSV antiviral cytoprotection assay in Hep2 cells (96-well and 384-well format, Cell TiterGlo read-out)
Type: cell-based, Respiratory Syncytial Virus (RSV)
Settings: human respiratory syncytial virus; for inhibition at 0.5 µM: HEp-2, 0.5 uM, RSV-induced cytopathic effect in Hep2 cells, calculated from fitted dose response curve, normalized to 0% and 100%; for EC50: HEp-2, RSV-induced cytopathic effects, Hep2 cells, class symbols

EC50 [nM] | Structure (SMILES) | inhibition at 0.5 µM [%]
0.1 to 100 | Cc1cn2nc([C@@H]3CCCCN3C(=O)c3cccc4c3ccn4C)cc2nc1N1CC[C@H](N)C1 [Compound 349] | 100
101 to 1000 | Cc1cn2nc([C@@H]3CCCCN3C(=O)c3ccc4ccn(C)c4c3)cc2nc1N1CC[C@H](N)C1 [Compound 350] | 83.6
0.1 to 100 | Cc1cn2nc([C@@H]3CCCCN3C(=O)c3cccc(C(C)C#N)c3)cc2nc1N1CC[C@H](N)C1 (stereo partly drawn) [Compound 351] | 100
0.1 to 100 | Cc1cn2nc([C@@H]3CCCCN3C(=O)c3ccnc(Cl)c3F)cc2nc1N1CC[C@H](N)C1 [Compound 352] | 100
0.1 to 100 | Cc1cn2nc([C@@H]3CCCCN3C(=O)c3c(F)ccc(F)c3F)cc2nc1N1CC[C@H](N)C1 [Compound 353] | 100
101 to 1000 | Cc1cc(C(=O)N2CCCC[C@H]2c2cc3nc(N4CC[C@H](N)C4)c(C)cn3n2)n(C(F)F)n1 [Compound 354] | 87
0.1 to 100 | Cc1cn2nc([C@@H]3CCCCN3C(=O)c3cc(C)n(C(F)F)n3)cc2nc1N1CC[C@H](N)C1 [Compound 355] | 96
0.1 to 100 | Cc1cn2nc([C@@H]3CCCCN3C(=O)c3ccn(CC(F)F)n3)cc2nc1N1CC[C@H](N)C1 [Compound 356] | 100
101 to 1000 | Cc1cn2nc([C@@H]3CCCCN3C(=O)c3nn(C)c4ccccc34)cc2nc1N1CC[C@H](N)C1 [Compound 357] | 82
0.1 to 100 | Cc1cn2nc([C@@H]3CCCCN3C(=O)c3cccn4c(C)nnc34)cc2nc1N1CC[C@H](N)C1 [Compound 358] | 100
0.1 to 100 | Cc1cn2nc([C@@H]3CCCCN3C(=O)c3ccc4c(c3)nnn4C)cc2nc1N1CC[C@H](N)C1 [Compound 359] | 100
101 to 1000 | Cc1cn2nc([C@@H]3CCCCN3C(=O)c3cc(-c4ccco4)n[nH]3)cc2nc1N1CC[C@H](N)C1 [Compound 360] | 66
0.1 to 100 | Cc1cn2nc([C@@H]3CCCCN3C(=O)c3ccc4ncsc4c3)cc2nc1N1CC[C@H](N)C1 [Compound 361] | 88
0.1 to 100 | Cc1cn2nc([C@@H]3CCCCN3C(=O)c3cc4cccnc4s3)cc2nc1N1CC[C@H](N)C1 [Compound 362] | 100
0.1 to 100 | Cc1cn2nc([C@@H]3CCCCN3C(=O)c3nc4ccccn4c3F)cc2nc1N1CC[C@H](N)C1 [Compound 363] | 99
0.1 to 100 | Cc1cn2nc([C@@H]3CCCCN3C(=O)c3ccc4c(c3)OCCO4)cc2nc1N1CC[C@H](N)C1 [Compound 364] | 99
0.1 to 100 | Cc1cn2nc([C@@H]3CCCCN3C(=O)c3cccc(OC(C)C)c3)cc2nc1N1CC[C@H](N)C1 [Compound 365] | 100
0.1 to 100 | Cc1cn2nc([C@@H]3CCCCN3C(=O)c3cnn(C4CCCC4)c3)cc2nc1N1CC[C@H](N)C1 [Compound 366] | 100
0.1 to 100 | Cc1cn2nc([C@@H]3CCCCN3C(=O)c3c4c(nn3C)CCCC4)cc2nc1N1CC[C@H](N)C1 [Compound 367] | 94

EC50 [nM] | Structure (SMILES) | inhibition at 0.5 µM [%]
101 to 1000 | Cc1cn2nc([C@@H]3CCCCN3C(=O)c3cc(CC(C)C)nn3C)cc2nc1N1CC[C@H](N)C1 [Compound 368] | 58
0.1 to 100 | Cc1cn2nc([C@@H]3CCCCN3C(=O)c3csc4c3CCCC4)cc2nc1N1CC[C@H](N)C1 [Compound 369] | 91
0.1 to 100 | Cc1cn2nc([C@@H]3CCCCN3C(=O)c3cc4c(s3)CCCC4)cc2nc1N1CC[C@H](N)C1 [Compound 370] | 99
0.1 to 100 | CNC(=O)c1cc(C(=O)N2CCCC[C@H]2c2cc3nc(N4CC[C@H](N)C4)c(C)cn3n2)n(C)n1 [Compound 371] | 100
101 to 1000 | CCC(=O)Nc1nonc1C(=O)N1CCCC[C@H]1c1cc2nc(N3CC[C@H](N)C3)c(C)cn2n1 [Compound 372] | 38
0.1 to 100 | Cc1cn2nc([C@@H]3CCCCN3C(=O)c3scc4c3OCCO4)cc2nc1N1CC[C@H](N)C1 [Compound 373] | 99
0.1 to 100 | COc1ccc(Cl)c(C(=O)N2CCCC[C@H]2c2cc3nc(N4CC[C@H](N)C4)c(C)cn3n2)c1 [Compound 374] | 100
0.1 to 100 | COc1ccc(C(=O)N2CCCC[C@H]2c2cc3nc(N4CC[C@H](N)C4)c(C)cn3n2)cc1Cl [Compound 375] | 99
0.1 to 100 | COc1cc(Cl)cc(C(=O)N2CCCC[C@H]2c2cc3nc(N4CC[C@H](N)C4)c(C)cn3n2)c1 [Compound 376] | 100
0.1 to 100 | COc1cccc(C(=O)N2CCCC[C@H]2c2cc3nc(N4CC[C@H](N)C4)c(C)cn3n2)c1Cl [Compound 377] | 99
101 to 1000 | Cc1cn2nc([C@@H]3CCCCN3C(=O)c3ccc(OC(F)F)cc3)cc2nc1N1CC[C@H](N)C1 [Compound 378] | 48
0.1 to 100 | Cc1cn2nc([C@@H]3CCCCN3C(=O)c3ccccc3OC(F)F)cc2nc1N1CC[C@H](N)C1 [Compound 379] | 100
101 to 1000 | Cc1cn2nc([C@@H]3CCCCN3C(=O)c3ccc(F)c(C)c3Cl)cc2nc1N1CC[C@H](N)C1 [Compound 380] | 80
0.1 to 100 | CCCn1cc(Cl)c(C(=O)N2CCCC[C@H]2c2cc3nc(N4CC[C@H](N)C4)c(C)cn3n2)n1 [Compound 381] | 100
0.1 to 100 | Cc1cn2nc([C@@H]3CCCCN3C(=O)c3c(Cl)cnn3C(C)C)cc2nc1N1CC[C@H](N)C1 [Compound 382] | 99
0.1 to 100 | Cc1cn2nc([C@@H]3CCCCN3C(=O)c3cc(-c4ccccc4)on3)cc2nc1N1CC[C@H](N)C1 [Compound 383] | 99
101 to 1000 | Cc1cn2nc([C@@H]3CCCCN3C(=O)c3cc(-c4cccnc4)n[nH]3)cc2nc1N1CC[C@H](N)C1 [Compound 384] | 48
0.1 to 100 | Cc1cn2nc([C@@H]3CCCCN3C(=O)c3ccc4[nH]c(C)c(C)c4c3)cc2nc1N1CC[C@H](N)C1 [Compound 386] | 97
101 to 1000 | Cc1cn2nc([C@@H]3CCCCN3C(=O)c3ccccc3C(F)(F)F)cc2nc1N1CC[C@H](N)C1 [Compound 387] | 77

EC50 [nM] | Structure (SMILES) | inhibition at 0.5 µM [%]
0.1 to 100 | Cc1cn2nc([C@@H]3CCCCN3C(=O)c3ccnc(-n4cnnc4)c3)cc2nc1N1CC[C@H](N)C1 [Compound 388] | 100
0.1 to 100 | Cc1cn2nc([C@@H]3CCCCN3C(=O)c3cccc(-n4cnnc4)n3)cc2nc1N1CC[C@H](N)C1 [Compound 389] | 98
101 to 1000 | Cc1cn2nc([C@@H]3CCCCN3C(=O)c3ccc(Cl)cc3Cl)cc2nc1N1CC[C@H](N)C1 [Compound 390] | 86
0.1 to 100 | Cc1cn2nc([C@@H]3CCCCN3C(=O)c3cc(Cl)ccc3Cl)cc2nc1N1CC[C@H](N)C1 [Compound 391] | 99
0.1 to 100 | Cc1cn2nc([C@@H]3CCCCN3C(=O)c3ccc(Cl)c(Cl)c3)cc2nc1N1CC[C@H](N)C1 [Compound 392] | 95
0.1 to 100 | Cc1cc(C(=O)N2CCCC[C@H]2c2cc3nc(N4CC[C@H](N)C4)c(C)cn3n2)c2cnn(C)c2n1 [Compound 393] | 99
0.1 to 100 | Cc1cc(C)n2ncc(C(=O)N3CCCC[C@H]3c3cc4nc(N5CC[C@H](N)C5)c(C)cn4n3)c2n1 [Compound 394] | 100
0.1 to 100 | Cc1cn2nc([C@@H]3CCCCN3C(=O)c3cc(Cl)ncc3Cl)cc2nc1N1CC[C@H](N)C1 [Compound 395] | 100
0.1 to 100 | Cc1cn2nc([C@@H]3CCCCN3C(=O)c3ccc(Cn4cccn4)o3)cc2nc1N1CC[C@H](N)C1 [Compound 396] | 99
1000 to 10000 | Cc1cc(C)n2nc(C(=O)N3CCCCC3c3cc4nc(N5CC[C@H](N)C5)c(C)cn4n3)nc2n1 (stereo partly drawn) [Compound 397] | 3
0.1 to 100 | Cc1cn2nc([C@@H]3CCCCN3C(=O)c3[nH]c4ccc(F)cc4c3C)cc2nc1N1CC[C@H](N)C1 [Compound 398] | 99
0.1 to 100 | Cc1cc(C(=O)N2CCCC[C@H]2c2cc3nc(N4CC[C@H](N)C4)c(C)cn3n2)c(C(F)(F)F)o1 [Compound 399] | 100
0.1 to 100 | Cc1cn2nc([C@@H]3CCCCN3C(=O)c3cc(C(F)(F)F)n(C)n3)cc2nc1N1CC[C@H](N)C1 [Compound 400] | 100
0.1 to 100 | Cc1cn2nc([C@@H]3CCCCN3C(=O)c3ccnn3CC(F)(F)F)cc2nc1N1CC[C@H](N)C1 [Compound 401] | 100
0.1 to 100 | Cc1cn2nc([C@@H]3CCCCN3C(=O)c3cn(C)nc3C(F)(F)F)cc2nc1N1CC[C@H](N)C1 [Compound 402] | 99
0.1 to 100 | Cc1ccn2c(F)c(C(=O)N3CCCC[C@H]3c3cc4nc(N5CC[C@H](N)C5)c(C)cn4n3)nc2c1 [Compound 403] | 100
0.1 to 100 | Cc1cn2nc([C@@H]3CCCCN3C(=O)c3cc(-c4cccs4)n[nH]3)cc2nc1N1CC[C@H](N)C1 [Compound 404] | 100
0.1 to 100 | Cc1cn2nc([C@@H]3CCCCN3C(=O)c3cc(C4(O)CCCC4)on3)cc2nc1N1CC[C@H](N)C1 [Compound 405] | 99
0.1 to 100 | Cc1cn2nc([C@@H]3CCCCN3C(=O)c3ccc(-c4ccccc4)cc3)cc2nc1N1CC[C@H](N)C1 [Compound 406] | 98
